Blank lines part the entries; values can stand above or below the molecule they belong to. Activity calls are given as the source filed them.
What was measured:
[1] = tested on: Jurkat; experiment: SAR Analysis of small molecule inhibitors of […] specific antigen receptor-induced NF-kB activation in a Jurkat cell line using a luminescence assay - Set 3. [Related pubchem assays (depositor defined):AID435022, AID435025, AID465]; assay type: functional, cell-based; conditions: Homo sapiens
[2] = tested on: HEK293; experiment: SAR Analysis of small molecule inhibitors of B-cell specific antigen receptor-induced NF-kB activation in a HEK-293T cell line using a luminescence assay - Set 2. [Related pubchem assays (depositor defined):AID435022, AID435025, AID489021]; assay type: functional, cell-based; conditions: Homo sapiens
[3] = tested on: HEK293; experiment: HEK293T cell viability loss, resazurin readout – resazurin fluorescence, cytotoxicity control for NF-kB activator project, SAR follow-up (AID 493251); assay type: functional, cell-based; conditions: Homo sapiens
[4] = target: T1, Short transient receptor potential channel 4 (Mus musculus, UniProt Q9QUQ5); experiment: SAR Analysis for the identification of selective inhibits of the transient receptor potential cation channel C4 (TRPC4): Automated Electrophysiology. [Related pubchem assays (depositor defined):AID2256]; assay type: functional
T1 sequence (Q9QUQ5 whole entry): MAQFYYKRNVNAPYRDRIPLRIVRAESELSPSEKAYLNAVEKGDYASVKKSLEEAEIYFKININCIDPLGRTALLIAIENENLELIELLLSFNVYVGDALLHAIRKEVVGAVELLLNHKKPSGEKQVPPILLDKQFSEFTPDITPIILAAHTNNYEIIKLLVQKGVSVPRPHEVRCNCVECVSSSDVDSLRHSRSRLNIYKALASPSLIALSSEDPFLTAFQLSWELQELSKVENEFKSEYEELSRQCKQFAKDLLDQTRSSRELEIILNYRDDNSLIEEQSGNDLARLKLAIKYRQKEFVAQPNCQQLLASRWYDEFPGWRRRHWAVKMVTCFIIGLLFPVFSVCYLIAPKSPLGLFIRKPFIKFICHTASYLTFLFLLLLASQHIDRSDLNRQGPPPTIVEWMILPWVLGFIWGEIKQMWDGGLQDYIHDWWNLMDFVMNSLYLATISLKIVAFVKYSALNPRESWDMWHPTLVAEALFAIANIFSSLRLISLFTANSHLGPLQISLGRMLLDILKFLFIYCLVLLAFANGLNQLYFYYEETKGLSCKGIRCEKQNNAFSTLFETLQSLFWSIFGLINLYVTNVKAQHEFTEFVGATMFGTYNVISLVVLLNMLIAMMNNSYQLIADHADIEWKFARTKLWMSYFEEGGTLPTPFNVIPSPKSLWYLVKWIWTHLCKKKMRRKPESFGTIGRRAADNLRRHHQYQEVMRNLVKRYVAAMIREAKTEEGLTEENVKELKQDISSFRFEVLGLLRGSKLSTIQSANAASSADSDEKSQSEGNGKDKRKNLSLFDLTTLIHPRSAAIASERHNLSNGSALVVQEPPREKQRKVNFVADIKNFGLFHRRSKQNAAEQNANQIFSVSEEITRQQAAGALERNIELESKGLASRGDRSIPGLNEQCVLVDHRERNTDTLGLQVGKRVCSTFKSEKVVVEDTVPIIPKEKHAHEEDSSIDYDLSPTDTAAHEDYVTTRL

[5] = target: T1, Short transient receptor potential channel 4; experiment: mouse TRPC4 block via Gq-coupled stimulation – cell-based, acetylcholine stimulus, HEK293 TRPC4, Fluo-4, SAR follow-up (AID 492996); assay type: functional
[6] = target: Short transient receptor potential channel 6 (Mus musculus, UniProt Q61143); experiment: mouse TRPC6 channel blockers, concentration series – HEK293 cells, membrane potential dye, IC50, selectivity assay for selective TRPC4 inhibitor project, dose response (AID 492987); assay type: functional, cell-based
[7] = target: T1, Short transient receptor potential channel 4; experiment: potency of mouse TRPC4 calcium flux blockers – cell-based, HEK293 TRPC4/mu-opioid, DAMGO stimulus, Fluo-4, dose response (AID 492994); assay type: functional
[8] = target: Beta-galactosidase (Escherichia coli, UniProt Q8VNN2); experiment: PubChem AID 485352; assay type: functional
[9] = target: Type-1 angiotensin II receptor (Homo sapiens, UniProt P30556); experiment: antagonism of angiotensin II type 1 receptor – cell-based, uHTS hits, selectivity assay for APJ receptor antagonist project, dose response (AID 463214); assay type: functional;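 also: antagonist potency against angiotensin II stimulated AT1 response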
[10] = target: Luciferin 4-monooxygenase (Photuris pensylvanica, UniProt Q27757); experiment: inhibition of Cell Titer Glo luciferase signal – biochemical, luminescence, cherry-picks, counter-screen for HSF-1 reporter inhibitor project, dose response (AID 588847)
Chain of Luciferin 4-monooxygenase (Q27757 whole entry): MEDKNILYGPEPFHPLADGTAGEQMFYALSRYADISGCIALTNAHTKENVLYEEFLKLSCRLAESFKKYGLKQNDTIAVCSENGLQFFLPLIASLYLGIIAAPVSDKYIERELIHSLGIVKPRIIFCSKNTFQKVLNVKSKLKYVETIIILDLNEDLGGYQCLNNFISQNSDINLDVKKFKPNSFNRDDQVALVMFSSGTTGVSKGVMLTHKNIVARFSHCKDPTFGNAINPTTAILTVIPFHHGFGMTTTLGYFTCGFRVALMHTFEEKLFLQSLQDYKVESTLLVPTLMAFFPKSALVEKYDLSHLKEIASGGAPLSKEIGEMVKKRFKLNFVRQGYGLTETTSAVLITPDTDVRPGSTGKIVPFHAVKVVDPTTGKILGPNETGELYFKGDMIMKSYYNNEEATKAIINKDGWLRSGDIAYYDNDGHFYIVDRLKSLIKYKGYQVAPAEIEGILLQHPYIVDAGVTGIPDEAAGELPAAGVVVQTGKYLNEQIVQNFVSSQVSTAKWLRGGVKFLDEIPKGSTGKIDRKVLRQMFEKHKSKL

Chain of Type-1 angiotensin II receptor (P30556 whole entry): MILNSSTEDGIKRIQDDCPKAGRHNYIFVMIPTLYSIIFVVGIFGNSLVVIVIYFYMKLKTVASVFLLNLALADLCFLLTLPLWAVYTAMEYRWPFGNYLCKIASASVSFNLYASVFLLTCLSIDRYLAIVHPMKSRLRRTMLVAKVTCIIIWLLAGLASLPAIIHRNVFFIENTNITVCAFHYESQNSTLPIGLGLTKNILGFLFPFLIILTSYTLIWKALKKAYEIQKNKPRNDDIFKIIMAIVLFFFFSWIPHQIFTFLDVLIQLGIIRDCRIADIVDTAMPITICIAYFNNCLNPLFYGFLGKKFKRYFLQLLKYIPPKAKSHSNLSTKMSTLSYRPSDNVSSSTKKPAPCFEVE
Chain of Short transient receptor potential channel 6 (Q61143 whole entry): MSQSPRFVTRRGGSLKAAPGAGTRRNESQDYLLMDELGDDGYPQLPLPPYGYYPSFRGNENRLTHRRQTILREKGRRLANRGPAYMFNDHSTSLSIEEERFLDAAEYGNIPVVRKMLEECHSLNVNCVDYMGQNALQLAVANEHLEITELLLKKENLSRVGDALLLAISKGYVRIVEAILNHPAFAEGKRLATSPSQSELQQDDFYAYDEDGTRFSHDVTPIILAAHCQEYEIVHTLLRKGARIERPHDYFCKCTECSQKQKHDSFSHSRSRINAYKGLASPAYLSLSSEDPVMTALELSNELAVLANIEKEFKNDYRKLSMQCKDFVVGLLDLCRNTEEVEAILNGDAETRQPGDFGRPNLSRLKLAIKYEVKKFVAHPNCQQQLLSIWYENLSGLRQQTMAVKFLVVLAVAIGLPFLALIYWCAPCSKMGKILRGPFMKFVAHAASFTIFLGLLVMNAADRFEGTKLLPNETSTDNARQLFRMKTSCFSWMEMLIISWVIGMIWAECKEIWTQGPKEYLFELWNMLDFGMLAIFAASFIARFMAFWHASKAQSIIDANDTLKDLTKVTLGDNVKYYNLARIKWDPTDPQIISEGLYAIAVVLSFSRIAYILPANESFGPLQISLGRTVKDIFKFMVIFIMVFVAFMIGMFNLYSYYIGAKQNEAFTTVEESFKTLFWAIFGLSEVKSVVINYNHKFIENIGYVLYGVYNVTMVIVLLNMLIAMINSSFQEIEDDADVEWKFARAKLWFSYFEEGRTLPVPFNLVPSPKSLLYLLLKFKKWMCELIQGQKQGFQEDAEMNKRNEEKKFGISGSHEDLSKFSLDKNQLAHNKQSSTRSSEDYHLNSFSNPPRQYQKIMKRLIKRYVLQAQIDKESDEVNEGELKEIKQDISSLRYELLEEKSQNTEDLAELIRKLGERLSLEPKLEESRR
Chain of Beta-galactosidase (Q8VNN2 whole entry): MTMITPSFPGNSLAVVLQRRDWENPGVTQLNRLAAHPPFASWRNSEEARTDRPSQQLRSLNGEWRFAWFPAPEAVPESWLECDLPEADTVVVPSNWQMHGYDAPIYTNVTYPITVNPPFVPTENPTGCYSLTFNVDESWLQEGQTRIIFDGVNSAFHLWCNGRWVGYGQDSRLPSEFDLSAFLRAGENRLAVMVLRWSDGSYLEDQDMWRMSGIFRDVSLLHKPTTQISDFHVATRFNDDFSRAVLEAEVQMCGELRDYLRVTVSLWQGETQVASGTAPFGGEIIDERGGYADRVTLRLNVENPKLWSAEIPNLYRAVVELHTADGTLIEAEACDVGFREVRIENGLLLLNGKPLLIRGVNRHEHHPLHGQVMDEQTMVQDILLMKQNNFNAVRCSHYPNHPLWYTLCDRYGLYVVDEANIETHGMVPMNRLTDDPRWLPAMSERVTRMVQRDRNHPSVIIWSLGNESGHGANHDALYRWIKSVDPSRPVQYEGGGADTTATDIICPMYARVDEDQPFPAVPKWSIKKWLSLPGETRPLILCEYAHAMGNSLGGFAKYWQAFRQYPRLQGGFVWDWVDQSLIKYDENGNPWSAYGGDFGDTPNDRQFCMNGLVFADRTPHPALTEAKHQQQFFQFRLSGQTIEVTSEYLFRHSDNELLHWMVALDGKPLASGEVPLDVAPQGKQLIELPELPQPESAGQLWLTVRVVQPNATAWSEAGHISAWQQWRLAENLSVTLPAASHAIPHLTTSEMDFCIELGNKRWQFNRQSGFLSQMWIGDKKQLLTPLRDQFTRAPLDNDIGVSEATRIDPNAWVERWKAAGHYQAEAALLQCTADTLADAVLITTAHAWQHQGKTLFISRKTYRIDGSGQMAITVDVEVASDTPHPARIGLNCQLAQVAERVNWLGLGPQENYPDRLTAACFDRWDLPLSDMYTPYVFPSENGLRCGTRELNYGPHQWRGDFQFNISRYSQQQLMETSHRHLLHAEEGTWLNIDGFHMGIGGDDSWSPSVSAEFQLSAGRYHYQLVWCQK

SMILES: CCOc1ccc(-c2nc(CSCC(=O)NCCN3CCCC3)c(C)o2)cc1
IC50 [1]: 10.4 µM (active) | IC50 [2]: 28.4 µM (inactive) | IC50 [3]: > 80 µM (inactive)

IC50 [4]: 8.18 µM (active) | IC50 [5]: 15.2 µM (active) | IC50 [6]: 11.4 µM (active) | IC50 [7]: 19.9 µM (active)
SMILES: Cc1cc(N2CCN(c3ccncc3)CC2)nc2ccccc12

EC50 [8]: > 40 µM (inactive) | IC50 [9]: > 40 µM (not active)
SMILES: O=C(CCC(=O)OCC(=O)c1ccc(Cl)cc1Cl)Nc1cccc2cccnc12

AC50 [10]: > 52 µM (inactive)
SMILES: C[C@]12C=CC(=O)C=C1CC[C@@H]1[C@@H]2[C@@H](O)C[C@@]2(C)[C@H]1CC[C@]2(O)C(=O)CO [PREDNISOLONE]
